CCS(=O)(=O)O.COC(=O)c1ccc2c(C(=Nc3ccc(N(C)C(=O)CN4CCN(C)CC4)cc3)c3ccccc3)c(O)[nH]c2c1
solubility (mole fraction)
Conditions	in DMAc	in DMF	in acetone	in acetonitrile	in dichloromethane	in ethanol	in isopropanol	in methanol	in n-butanol	in n-propanol
278.15 K	0.000745	0.000994	3.21e-06	9.42e-06	0.000125	0.00015	1.43e-05	0.00126	1.21e-05	4.29e-05
283.15 K	0.000878	0.00129	4.13e-06	1.42e-05	0.000148	0.000179	1.93e-05	0.00149	1.44e-05	6.92e-05
288.15 K	0.0011	0.00145	4.97e-06	1.75e-05	0.000161	0.000214	2.57e-05	0.00169	1.82e-05	8.1e-05
293.15 K	0.00129	0.00165	5.92e-06	2.17e-05	0.000175	0.000253	3.39e-05	0.00203	2.33e-05	0.000103
298.15 K	0.00156	0.00182	6.97e-06	2.89e-05	0.000199	0.000298	4.44e-05	0.00238	2.7e-05	0.000131
303.15 K	0.00186	0.00206	8.32e-06	3.83e-05	0.00022	0.00035	5.75e-05	0.00281	3.54e-05	0.000156
308.15 K	0.00214	0.00239	9.74e-06	4.28e-05	0.00025	0.0004	7.4e-05	0.00341	4.5e-05	0.000207
313.15 K	0.00258	0.00271	1.08e-05	5.13e-05	–	0.000473	0.0001	0.00413	5.17e-05	0.000241
318.15 K	0.00285	0.00304	1.3e-05	6.02e-05	–	0.000546	0.000118	0.00467	7.26e-05	0.000317
323.15 K	0.00316	0.00336	1.62e-05	6.85e-05	–	0.000627	0.00015	0.00524	8.92e-05	0.000384
